Our source for the Elispot values is patent publication US20260224678A1, “EXPEDITED NEOANTIGEN VACCINES” (priority 2023, published 2026).

The experiment relates to T cells. As to the kind of experiment: Elispot response after vaccination with neoepitope peptides. The class given is cell-based, human. As to conditions: subject with R132H mutation of IDH1 vaccinated multiple times with two 9 mer peptides and a 15 mer peptide carrying the motifs. The source says:
As noted above, T cell exposed motif frequency is also a criterion for selection of vaccinal peptides from mutated passenger gene products. Table 10—(also replicated as FIG. 5) provides an example for a particular individual cancer-affected subject showing the selection of the most advantageous peptides based on frequency of occurrence in reference databases of pentamer counts and the subject's HLA alleles. When the pentamers in tumor specific T cell exposed motifs that expose a mutated amino acid are absent or low frequency in the human proteome, particular attention is paid to the frequency count in databases of exogenous proteins. In the table we show application of the representative gastrointestinal microbiome dataset. Application of this database should not be considered limiting and other reference sets likely to be indicative of prior epitope exposure may be applied. In this example the top two passenger mutations (in genes ARHGAP5 and ATIC) have T cell exposed motifs which are common. However, the lower two mutations (in CDC42 and CHD6) are poorly represented in the human and gastrointestinal microbiome reference datasets. Selected peptides for these two mutated proteins (margins boxed in FIG. 5) that best fulfil the criteria of frequency and also binding to this subject's known HLA alleles include SEQ ID NO.:s. 1891, 1897, 1898, 1914, 1915, 1916, 1921. In another embodiment a subject affected with a R132H mutation of IDH1 was vaccinated multiple times with two 9 mer peptides both exposing the mutant histidine. One peptide carried T cell exposed motif ~~~IGHHA~ (SEQ ID NO.: 1924) and the other carrying ~~~GHHAY~ SEQ ID NO.: 1925 and a 15 mer peptide comprising KP~I~GH SEQ ID NO.: 1927. A positive Elispot response was detected to SEQ ID NO.: 1924 and 1927 but not SEQ ID NO.: 1925.
Methods of expansion of T cells and sequencing of the T cell receptors (TCR) therein are known to the art. […]
Consider 1925 (GHHAY) [compound 1925], for which the Elispot result is listed as “negative”. To 1927 (KPIGH) [compound 1927] belongs “positive”. 1924 (IGHHA) [compound 1924]: the Elispot entry is recorded as “positive”.
